Data reported in the supplement of paper PMC10307832.

Columns and labels:
Experiment in all cases: relative viability (nuclei count vs DMSO), 5 days (fraction); higher = more cells survive
[1] = compound: O=S(=O)(c1ccccc1)N(CC(F)(F)F)c1ccc(C(O)(C(F)(F)F)C(F)(F)F)cc1 + Nc1ncn([C@H]2C[C@H](O)[C@@H](CO)O2)c(=O)n1 [Decitabine] (partner 2 µM)
How it was run: (§1)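 Lung cancer cell lines in 1536-well plates were dosed by pin tool the day after seeding, either with one drug alone or with a fixed anchor-drug dose plus five library-drug doses (not always all listed) in √10 steps. After 5 days, cells were fixed and their nuclei stained in one step (final 0.05% Triton X-100, 1% formaldehyde, 1 ug/ml Hoechst), then counted on 4× images. Relative viability is the nuclei count in treated wells divided by that in vehicle wells. Values are medians of duplicate plates.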

[2] = compound: O=S(=O)(c1ccccc1)N(CC(F)(F)F)c1ccc(C(O)(C(F)(F)F)C(F)(F)F)cc1 + CC(C)C[C@H](NC(=O)[C@H](Cc1ccccc1)NC(=O)c1cnccn1)B(O)O [Bortezomib] (partner 0.002 µM)
How it was run: as §1

[3] = compound: O=S(=O)(c1ccccc1)N(CC(F)(F)F)c1ccc(C(O)(C(F)(F)F)C(F)(F)F)cc1 + CS(=O)(=O)N1CCN(Cc2cc3nc(-c4cccc5[nH]ncc45)nc(N4CCOCC4)c3s2)CC1 [Pictilisib] (partner 1 µM)
How it was run: as §1

[4] = compound: O=S(=O)(c1ccccc1)N(CC(F)(F)F)c1ccc(C(O)(C(F)(F)F)C(F)(F)F)cc1 + CC1(C)CCC(c2ccc(Cl)cc2)=C(CN2CCN(c3ccc(C(=O)NS(=O)(=O)c4ccc(N[C@H](CCN5CCOCC5)CSc5ccccc5)c(S(=O)(=O)C(F)(F)F)c4)cc3)CC2)C1 [Navitoclax] (partner 0.5 µM)
How it was run: as §1

[5] = compound: O=S(=O)(c1ccccc1)N(CC(F)(F)F)c1ccc(C(O)(C(F)(F)F)C(F)(F)F)cc1 + C[C@@H](Oc1cc(-c2cnn(C3CCNCC3)c2)cnc1N)c1c(Cl)ccc(F)c1Cl [Crizotinib] (partner 1 µM)
How it was run: as §1

RO-3306 + Pemetrexed = compound: C1=CC2=C(C=CC(=C2)C=C3C(=O)NC(=NCC4=CC=CS4)S3)N=C1 [RO-3306] + Nc1nc2[nH]cc(CCc3ccc(C(=O)N[C@@H](CCC(=O)O)C(=O)O)cc3)c2c(=O)[nH]1 [Pemetrexed] (partner 0.2 µM)
How it was run: as §1

Cell Line | relative viability ([1]; first compound 0.8 µM) | relative viability ([1]; first compound 2.53 µM) | relative viability ([1]; first compound 8 µM) | relative viability ([2]; first compound 0.8 µM) | relative viability ([2]; first compound 2.53 µM) | relative viability ([2]; first compound 8 µM) | relative viability ([3]; first compound 0.8 µM) | relative viability ([3]; first compound 2.53 µM) | relative viability ([3]; first compound 8 µM) | relative viability ([4]; first compound 0.8 µM) | relative viability ([4]; first compound 2.53 µM) | relative viability ([4]; first compound 8 µM) | relative viability ([5]; first compound 0.8 µM) | relative viability ([5]; first compound 2.53 µM) | relative viability ([5]; first compound 8 µM) | relative viability (RO-3306 + Pemetrexed; first compound 0.01 µM) | relative viability (RO-3306 + Pemetrexed; first compound 0.03162 µM) | relative viability (RO-3306 + Pemetrexed; first compound 0.1 µM) | relative viability (RO-3306 + Pemetrexed; first compound 0.3162 µM) | relative viability (RO-3306 + Pemetrexed; first compound 1 µM)
PC-14 | 0.197 | 0.19 | 0.209 | 0.986 | 0.88 | 0.496 | 0.743 | 0.557 | 0.339 | 1.14 | 1.11 | 0.412 | 1.1 | 0.893 | 0.932 | 0.135 | 0.162 | 0.137 | 0.133 | 0.176
NCI-H1437 | 0.609 | 0.549 | 0.568 | 0.485 | 0.423 | 0.588 | 0.374 | 0.327 | 0.412 | 1.04 | 0.859 | 0.893 | 0.909 | 0.706 | 0.744 | 0.343 | 0.311 | 0.374 | 0.344 | 0.37
201T | 0.846 | 0.858 | 0.834 | 1.02 | 1.04 | 1 | 0.632 | 0.628 | 0.82 | 1.18 | 1.18 | 1.22 | 1 | 0.902 | 1 | 0.277 | 0.315 | 0.358 | 0.32 | 0.41
LCLC-97TM1 | – | 0.22 | 0.196 | 0.397 | 0.457 | 0.723 | 0.174 | 0.218 | 0.187 | 0.535 | 0.368 | 0.344 | 0.314 | 0.371 | 0.297 | 0.175 | 0.169 | 0.144 | 0.178 | 0.185
LU99A | 0.876 | 0.863 | 0.834 | 1.34 | 1.17 | 1.16 | 0.296 | 0.293 | 0.271 | 1.02 | 0.694 | 0.776 | 0.634 | 0.465 | 0.516 | 0.285 | 0.267 | 0.174 | 0.176 | 0.188
NCI-H1915 | 0.287 | 0.281 | 0.29 | 1.08 | 0.964 | 0.974 | 0.965 | 1.1 | 1.13 | 0.881 | 0.81 | 0.786 | 0.958 | 0.894 | 0.834 | 0.609 | 0.495 | 0.52 | 0.49 | 0.572
NCI-H2405 | 0.841 | 0.701 | 0.797 | 1.02 | 0.952 | 0.885 | 0.471 | 0.455 | 0.418 | 1.11 | 1.01 | 0.896 | 0.884 | 0.837 | 0.9 | 0.913 | 1.02 | 1.01 | 0.971 | 0.907
EPLC-272H | 0.412 | 0.374 | 0.359 | 0.964 | 0.899 | 0.656 | 0.316 | 0.302 | 0.35 | 1.24 | 1.08 | 0.795 | 1.24 | 0.742 | 0.841 | 0.36 | 0.436 | 0.406 | 0.3 | 0.247
